# Source: ChEMBL document CHEMBL5316348, “Targeting the Epidermal Growth Factor Receptor with Molecular Degraders: State-of-the-Art and Future Opportunities” (J Med Chem, 2023)
# Columns and labels:
# [1] = test system: Protein cereblon/Epidermal growth factor receptor (Homo sapiens), P00533+Q96SW2 [L858R,T790M]; experiment: Protac activity at CRBN/EGFR L858R/T790M double mutant in mouse BaF3 cells assessed as induction of protein degradation at 0.1 uM measured after 24 hrs by Western blot analysis relative to control; type: cell-based
# [2] = test system: BaF3; experiment: Antitumor activity against mouse BaF3 cells expressing EGFR deletion19/T790M/C797S triple mutant implanted in […] BALB/c nude mouse model assessed as reduction in tumor volume at 40 mg/kg, po relative to control; type: functional; parameters: scale not given: the % may be the effect or the level left
# [3] = test system: BaF3; experiment: Antitumor activity against mouse BaF3 cells expressing EGFR deletion19/T790M/C797S triple mutant implanted in CDX BALB/c nude mouse model assessed as reduction in tumor volume at 40 mg/kg, po relative to control; type: functional; parameters: scale not given: the % may be the effect or the level left
# [4] = Oral bioavailability in mouse at 10 mg/kg; type: ADME, organism-based; conditions: in vivo
# [5] = target: T1, von Hippel-Lindau disease tumor suppressor/Epidermal growth factor receptor (Homo sapiens, UniProt P00533+P40337); experiment: Protac activity at VHL/EGFR deletion19 mutant in human HCC827 cells assessed as induction of protein degradation; type: cell-based
# T1 sequence (P00533 25-1210 limits assumed, stated change not applied): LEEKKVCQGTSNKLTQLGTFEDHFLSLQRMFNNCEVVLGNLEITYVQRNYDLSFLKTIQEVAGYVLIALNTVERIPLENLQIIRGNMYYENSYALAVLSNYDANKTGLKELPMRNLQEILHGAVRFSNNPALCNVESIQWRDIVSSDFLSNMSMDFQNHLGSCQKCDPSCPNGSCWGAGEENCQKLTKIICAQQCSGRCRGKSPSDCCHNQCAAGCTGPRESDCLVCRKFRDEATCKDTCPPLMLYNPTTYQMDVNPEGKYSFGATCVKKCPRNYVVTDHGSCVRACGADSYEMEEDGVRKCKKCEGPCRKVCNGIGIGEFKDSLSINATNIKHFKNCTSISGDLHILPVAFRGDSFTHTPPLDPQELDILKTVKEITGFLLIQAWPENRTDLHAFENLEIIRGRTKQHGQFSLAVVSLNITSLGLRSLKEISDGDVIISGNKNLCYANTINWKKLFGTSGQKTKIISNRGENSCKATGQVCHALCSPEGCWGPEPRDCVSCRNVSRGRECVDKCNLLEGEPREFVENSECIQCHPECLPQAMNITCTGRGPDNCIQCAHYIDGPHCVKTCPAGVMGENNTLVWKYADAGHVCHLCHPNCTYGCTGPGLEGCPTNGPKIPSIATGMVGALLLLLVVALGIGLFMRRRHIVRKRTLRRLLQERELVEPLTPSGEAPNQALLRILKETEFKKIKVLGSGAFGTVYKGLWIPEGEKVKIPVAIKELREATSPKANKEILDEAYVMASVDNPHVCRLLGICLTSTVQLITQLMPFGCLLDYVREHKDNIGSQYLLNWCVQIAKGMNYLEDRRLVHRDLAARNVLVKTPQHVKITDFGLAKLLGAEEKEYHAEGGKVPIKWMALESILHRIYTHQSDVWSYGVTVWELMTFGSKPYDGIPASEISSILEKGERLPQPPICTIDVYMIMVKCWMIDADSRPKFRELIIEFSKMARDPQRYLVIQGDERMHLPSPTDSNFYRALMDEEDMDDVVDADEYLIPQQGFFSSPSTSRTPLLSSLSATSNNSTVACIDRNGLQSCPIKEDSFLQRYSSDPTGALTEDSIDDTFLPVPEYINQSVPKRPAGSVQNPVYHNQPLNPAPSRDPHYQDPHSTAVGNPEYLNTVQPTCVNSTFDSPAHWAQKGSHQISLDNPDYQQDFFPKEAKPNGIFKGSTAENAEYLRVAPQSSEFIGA
# T1 sequence (P40337 whole entry, stated change not applied): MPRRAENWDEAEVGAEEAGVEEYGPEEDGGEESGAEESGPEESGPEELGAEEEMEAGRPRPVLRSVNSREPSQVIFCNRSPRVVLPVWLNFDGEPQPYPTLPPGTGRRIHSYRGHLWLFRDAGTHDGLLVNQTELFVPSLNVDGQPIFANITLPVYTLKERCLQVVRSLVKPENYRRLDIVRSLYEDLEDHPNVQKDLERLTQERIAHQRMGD
# [6] = test system: von Hippel-Lindau disease tumor suppressor/Epidermal growth factor receptor (Homo sapiens), P00533+P40337 [UNDEFINED MUTATION]; experiment: Protac activity at VHL/EGFR deletion19 mutant in human HCC827 cells assessed as induction of protein degradation by measuring maximal efficacy relative to control; type: cell-based
# Chain of von Hippel-Lindau disease tumor suppressor/Epidermal growth factor receptor (Homo sapiens), P00533+P40337 [UNDEFINED MUTATION] (P00533 whole entry, looked up, stated change not applied): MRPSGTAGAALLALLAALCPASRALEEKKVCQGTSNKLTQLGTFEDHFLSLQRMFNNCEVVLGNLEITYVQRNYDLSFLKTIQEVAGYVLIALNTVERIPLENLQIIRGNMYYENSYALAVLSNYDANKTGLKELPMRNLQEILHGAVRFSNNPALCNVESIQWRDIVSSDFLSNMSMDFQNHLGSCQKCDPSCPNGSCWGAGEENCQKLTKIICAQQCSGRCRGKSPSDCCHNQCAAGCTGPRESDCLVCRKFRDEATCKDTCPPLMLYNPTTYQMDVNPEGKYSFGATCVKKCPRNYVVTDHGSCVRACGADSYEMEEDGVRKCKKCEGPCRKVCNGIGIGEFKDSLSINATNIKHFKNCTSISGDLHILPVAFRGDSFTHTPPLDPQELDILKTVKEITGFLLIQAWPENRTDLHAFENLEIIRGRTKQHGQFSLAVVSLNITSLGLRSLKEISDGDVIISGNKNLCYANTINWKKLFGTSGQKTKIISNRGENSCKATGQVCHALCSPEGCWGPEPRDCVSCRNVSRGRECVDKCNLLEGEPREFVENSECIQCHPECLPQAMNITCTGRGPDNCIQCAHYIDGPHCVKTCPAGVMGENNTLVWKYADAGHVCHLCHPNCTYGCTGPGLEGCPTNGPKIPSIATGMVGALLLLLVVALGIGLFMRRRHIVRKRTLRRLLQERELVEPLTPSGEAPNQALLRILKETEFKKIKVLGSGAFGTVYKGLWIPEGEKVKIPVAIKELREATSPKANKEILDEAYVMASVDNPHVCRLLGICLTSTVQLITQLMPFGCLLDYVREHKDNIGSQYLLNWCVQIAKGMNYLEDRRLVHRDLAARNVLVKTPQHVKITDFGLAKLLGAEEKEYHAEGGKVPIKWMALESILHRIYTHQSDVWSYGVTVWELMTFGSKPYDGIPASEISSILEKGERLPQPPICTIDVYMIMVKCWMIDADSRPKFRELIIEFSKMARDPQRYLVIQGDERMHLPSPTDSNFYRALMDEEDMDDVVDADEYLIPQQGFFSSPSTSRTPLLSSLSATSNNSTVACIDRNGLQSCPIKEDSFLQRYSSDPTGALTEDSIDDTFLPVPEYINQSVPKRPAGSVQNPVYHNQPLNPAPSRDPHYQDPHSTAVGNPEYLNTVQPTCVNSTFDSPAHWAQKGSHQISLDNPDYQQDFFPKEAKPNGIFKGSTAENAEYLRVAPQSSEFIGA
# Chain of von Hippel-Lindau disease tumor suppressor/Epidermal growth factor receptor (Homo sapiens), P00533+P40337 [UNDEFINED MUTATION] (P40337 whole entry, looked up, stated change not applied): as the sequence (P40337 whole entry, stated change not applied) above
# [7] = target: Epidermal growth factor receptor (Homo sapiens, UniProt P00533); experiment: Inhibition of wild type EGFR (unknown origin) preincubated for 5 mins followed by substrate and ATP addition and further incubated for 30 mins by HTRF assay
# [8] = target: Epidermal growth factor receptor (Homo sapiens, UniProt P00533, T790M)
# [9] = target: T2, Protein cereblon/Epidermal growth factor receptor (Homo sapiens, UniProt P00533+Q96SW2); experiment: Protac activity at CRBN/wild type EGFR in human A549 cells assessed as induction of EGFR degradation incubated for 48 hrs by Western blot analysis; type: cell-based
# [10] = target: T2, Protein cereblon/Epidermal growth factor receptor; experiment: Protac activity at CRBN/wild type EGFR in human A549 cells assessed as induction of EGFR degradation at 100 nM measured after 72 hrs by Western blot analysis relative to control; type: cell-based
# Target sequence in this assay (P00533 25-1210 limits assumed): as the sequence (P00533 25-1210 limits assumed, stated change not applied) above
# Target sequence in this assay (Q96SW2 whole entry partner): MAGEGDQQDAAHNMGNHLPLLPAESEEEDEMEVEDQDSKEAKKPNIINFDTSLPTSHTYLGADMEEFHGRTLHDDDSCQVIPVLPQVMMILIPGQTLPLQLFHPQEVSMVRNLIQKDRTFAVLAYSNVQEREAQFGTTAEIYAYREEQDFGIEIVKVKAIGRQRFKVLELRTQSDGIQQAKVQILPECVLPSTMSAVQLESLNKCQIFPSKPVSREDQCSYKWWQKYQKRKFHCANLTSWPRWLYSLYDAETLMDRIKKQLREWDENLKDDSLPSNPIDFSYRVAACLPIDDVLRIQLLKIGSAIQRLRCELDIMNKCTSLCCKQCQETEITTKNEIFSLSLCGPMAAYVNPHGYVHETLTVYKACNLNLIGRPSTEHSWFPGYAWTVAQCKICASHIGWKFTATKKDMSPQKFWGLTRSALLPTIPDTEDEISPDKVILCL
# [11] = target: von Hippel-Lindau disease tumor suppressor/Epidermal growth factor receptor (Homo sapiens, UniProt P00533+P40337, L858R); experiment: Protac activity at VHL/EGFR L858R mutant in human NCI-H3255 cells assessed as induction of protein degradation incubated for 24 hrs by immunoblotting analysis; type: cell-based
# [12] = target: T1, von Hippel-Lindau disease tumor suppressor/Epidermal growth factor receptor; experiment: Protac activity at VHL/EGFR deletion19 mutant in human HCC827 cells assessed as induction of protein degradation incubated for 24 hrs by immunoblotting analysis; type: cell-based
# [13] = test system: von Hippel-Lindau disease tumor suppressor/Epidermal growth factor receptor (Homo sapiens), P00533+P40337 [UNDEFINED MUTATION]; experiment: Protac activity at VHL/EGFR deletion19 mutant in human HCC827 cells assessed as induction of protein degradation by measuring maximal efficacy incubated for 24 hrs by immunoblotting analysis relative to control; type: cell-based
# [14] = test system: von Hippel-Lindau disease tumor suppressor/Epidermal growth factor receptor (Homo sapiens), P00533+P40337 [L858R]; experiment: Protac activity at VHL/EGFR L858R mutant in human NCI-H3255 cells assessed as induction of protein degradation by measuring maximal efficacy incubated for 24 hrs by immunoblotting analysis relative to control; type: cell-based
compound,measurement,setting,value
O=C1CCC(N2C(=O)c3cccc(NCCOCCOCCOCCN4CCN(c5ccc(-c6ccc7c(c6)C(=O)N(C(C(=O)Nc6nccs6)c6ccccc6)C7)cn5)CC4)c3C2=O)C(=O)N1 (centres undefined),Emax,[1],56%
COc1cc(N2CCC(N3CCN(CCC#Cc4cccc5c4CN(C4CCC(=O)NC4=O)C5=O)CC3)CC2)ccc1Nc1ncc(Cl)c(Nc2ccccc2P(C)(C)=O)n1 (centres undefined),Activity,[2],67%
same,Activity,[3],84%
same,bioavailability,[4],62.8%
Cc1ncsc1-c1ccc(CNC(=O)[C@@H]2C[C@@H](O)CN2C[C@@H](NC(=O)CCCCCCCCCCn2cc(COc3cc4ncnc(Nc5ccc(F)c(Cl)c5)c4cc3NC(=O)/C=C/CN3CCCCC3)nn2)C(C)(C)C)cc1,EC50,[5],0.00357 µM
same,Emax,[6],91%
CN1C(=O)C(C(=O)NN)N(C)c2ccccc21 (centres undefined),IC50,[7],0.1 µM
same,IC50,[8],4.02 µM
Cn1c(=O)c(C(=O)NNCCOCCOCC(=O)Nc2cccc3c2C(=O)N(C2CCC(=O)NC2=O)C3=O)nc2ccccc21 (centres undefined),EC50,[9],0.0329 µM
same,Emax,[10],96%
COc1cc2ncnc(Nc3ccc(F)c(Cl)c3)c2cc1OCCCCCOCCOCCC(=O)N[C@H](C(=O)N1C[C@H](O)C[C@H]1C(=O)NCc1ccc(-c2scnc2C)cc1)C(C)(C)C,EC50,[11],0.0223 µM
same,EC50,[12],0.0117 µM
same,Emax,[13],98.9%
same,Emax,[14],96.6%
